Laboratory results reported in patent US9029346B1, “Irreversible inhibitors of DNA polymerase beta” (The Johns Hopkins University, priority 2013, dated 2015).

What was measured:
Pol β = Pol β (Homo sapiens, UniProt P06746); format: biochemical
Experimental: It is worth noting that the well should be full to obtain accurate fluorescence data (approximately 380 μL). […] To determine the polymerase activity in the presence of each inhibitor, a solution of 13 (3.8 μL, 5 μM) and dTTP (3.8 μL, 10 mM) were also added (to make final [13]=50 nM and 100 μM of dTTP). The plates were immediately placed in the microtiter plate reader and the measurements were recorded.
It is worth noting that the well should be full in order to get accurate fluorescence data (approximately 380 μL). The solutions of inhibitors (40×) in acetonitrile obtained after pentenyl deprotection (10 μL) were transferred to the wells containing Pol β and incubated for 20 min. To determine the polymerase activity of enzyme in the presence of each inhibitor, solutions of ternary complex 13 (3.8 μL, 5 μM) and dTTP (3.8 μL, 10 mM) were also added (to make final 50 nM of 13 and 100 μM of dTTP). The plates were placed immediately in the microtiter plate reader Cary Eclipse Varian and the measurements started.
The inhibitor solution (40×, 10 μL) was added to the first well and preincubated for 20 min. At this time, the same portion of inhibitor was added to the second well. […] Once the inhibitor was added to the fifth well, solutions of ternary complex 13 (3.8 pit, 5 μM) and dTTP (3.8 μL, 10 mM) were also added and the fluorescence measurement was started immediately.

[1] = system: DU145 prostate cancer cells; format: cell-based; settings: for DU145 cells surviving treatment: 40 μM, FIG. 13A
Experimental: DU 145 cells were obtained from the American Type Culture Collection (ATCC, HTB-81, Manassas, Va.) and maintained in RPMI 1640 culture medium (Sigma-Aldrich R8758, St. Louis, Mo.), supplemented with 10% fetal bovine serum (Sigma-Aldrich F6178, St. Louis, Mo.). Cultures were grown at 37° C. in a humidified atmosphere of 5% carbon dioxide without any antibiotics and subcultured when they reached confluence. For clonogenic survival analysis, the appropriate number of cells were grown in standard 6-well tissue culture dishes in the growth media (2 mL per well). After 2 days, the cells were treated with Pol β inhibitors (3a or 18) by addition of sterile stock solution in water directly to the growth media to the desired final concentrations. Cells were treated similarly with methyl methanesulfonate (MMS, Sigma-Aldrich, St. Louis, Mo.). For combined treatments, 18 was added to the cells first followed by MMS. The compounds remained present throughout the entire assay. Two weeks after the treatment, the cells were fixed and stained with 0.2% solution of crystal violet in 50% methanol. Colonies with ≧50 cells were then counted. All treatments were carried out in triplicate.
[…]. Consequently, DU145 cell survival was measured as a function of MMS concentration, without and with 18 at a concentration (20 μM) where the proinhibitor itself results in approximately 45% cell death. […] […].

[2] = system: Klenow fragment of DNA polymerase 1; assay: Klenow exo- strand displacement synthesis fluorescence assay (selectivity); format: biochemical, E. coli; settings: 10 μM, same conditions as Pol β, FIG. 9
Experimental: […]. The volume of the solution in each well is approximately 400 μL. Pol β (final concentration, 10 nM) or Klenow exo-(final concentration 5 nM) is added and the measurement of the fluorescence is started immediately.
More than one dozen polymerases exist in a human cell. Because there is not access to each of these, the Klenow fragment of DNA polymerase 1 from E. coli was used as a primitive test of the inhibitor's (3a) selectivity. […]. However, the efficacy of the 1,4-dicarbonyl containing inhibitor (1a) was compromised by thiols, presumably due to nucleophilic addition (FIG. 10). […]

[3] = system: DU145 lysate lyase activity; assay: Lyase activity of DU145 cell extracts (lysates) on 3′-32P-15
Experimental: The aliquots were kept on ice for 1 h before mixing with loading buffer (5 μL). The samples were analyzed by 20% denaturing PAGE and quantified using a phosphorimager.
Cells were harvested by mild trypsinzation. The cells were then washed three times with phosphate buffered saline. Cell pellets were suspended in 1× Passive Lysis Buffer (PBL, Promega Corporation, E1941, Madison, Wis.) at concentration of 1×10^7 cells per mL and frozen in aliquots at −80° C. Protein concentrations were determined by Bio-Rad protein assay dye (Bio-Rad, 500-0006, Hercules, Calif.) according to the manufacturer's protocol and using bovine serum albumin as a standard.

Pol β lyase activity = Pol β lyase activity (Homo sapiens, UniProt P06746); assay: Pol β lyase (dRPase) activity on 3′-32P-15 by gel electrophoresis
Experimental: The ability of 1a to inhibit Pol β's dRPase activity was examined using 3′-^32P-15 in which the oligonucleotide containing dRP was labeled.
The DNA substrate was added to the reaction following preincubation of 1a with Pol β and subsequent 100-fold dilution. The lyase reaction was monitored by gel electrophoresis.

[4] = Conversion of bisacetate proinhibitor to 3a in DU145 lysate (TLC analysis); format: in vitro ADME
[5] = system: mouse embryonic fibroblast cell lysates lyase activity; assay: Lyase (dRPase) activity of mouse embryonic fibroblast lysates on 3′-32P-15; format: biochemical; settings: for Rate of product formation: inhibitor + (18, 50 μM), 32 μg protein

SMILES: COc1cc(Cl)c(/C=N/OC2C[C@H](n3cc(C)c(=O)[nH]c3=O)O[C@@H]2COP(=O)(OC)OCC2CC(O)OC2O)c(Cl)c1O (stereo partly shown) [2a]
- effect on Pol β activity in strand displacement assay (Pol β): comparable inhibition activity as 1a

SMILES: COc1cc(Cl)c(/C=N/OC2C[C@H](n3cc(C)c(=O)[nH]c3=O)O[C@@H]2COP(=O)(O)OCC2CC(O)OC2O)c(Cl)c1O (stereo partly shown) [3a]
- DU145 cells surviving treatment [1]: 12%
- effect on Klenow fragment's activity [2]: no effect
- lyase activity remaining ([3]; 150 μM): more than 30%

SMILES: COc1cc(Cl)c(/C=N/OC2C[C@H](n3cc(C)c(=O)[nH]c3=O)O[C@@H]2COP(=O)(OC)OCCC=O)c(Cl)c1O (stereo partly shown) [compound 16]
- effect on Pol β lyase activity (Pol β lyase activity): had no effect

SMILES: COc1cc(Cl)c(/C=N/OC2C[C@H](n3cc(C)c(=O)[nH]c3=O)O[C@@H]2COP(=O)(O)OCC2CC(OC(C)=O)OC2OC(C)=O)c(Cl)c1O (stereo partly shown) [compound 18]
- time for conversion of bisacetate to 3a [4]: ≤ 5 min
- Rate of product formation ([5]; Pol β - lysate): 5.5 ± 1.5 ×10^−1 % · min^−1
- Rate of product formation ([5]; Pol β wt lysate): 9.2 ± 2.4 ×10^−1 % · min^−1
- reduction of lyase activity ([5]; Pol β- cell lysates, 18 at 50 μM): less than 30%
- Rate of product formation ([5]; Pol β/λ - lysate): 11.0 ± 4.0 ×10^−1 % · min^−1
- Rate of product formation ([5]; Pol λ - lysate): 9.1 ± 2.3 ×10^−1 % · min^−1
- Rate of product formation ([5]; Pol λ wt lysate, aliquots at 2, 5, 10 min): 12.4 ± 3.2 ×10^−1 % · min^−1
- effect on lyase activity versus wild type cells ([5]; cells lacking Pol λ (Pol λ-), p=0.05): statistically indistinguishable
- effect on lyase activity versus Pol β- cells ([5]; double knock-out (Pol β-/Pol λ-) cells): within experimental error
- reduction of the rate of the lyase reaction ([5]; lysates from wild type cells, 18 at 50 μM): ~2 fold
- MMS concentration at and above which clear potentiation of cytotoxicity is seen [1]: ≥ 0.2 mM
- cell death ([1]; 20 μM, proinhibitor alone): approximately 45%
- DU145 cells surviving treatment [1]: approximately 0.01%
- effect on Pol β lyase activity (Pol β lyase activity): had no effect
- inhibition of DU145 lysate lyase activity ([3]; 150 μM): Almost complete inhibition
- preincubation time by which inactivation was complete ([3]; 18 at 50 μM, preincubation varied 5-60 min): ≤ 15 min
- lyase activity inhibition compared with 3a ([3]; 1 h preincubation, FIG. 11): significantly greater
